Test results as given in patent publication US4847245A, “N-demethylefrotomycin” (Pfizer Inc., priority 1988, dated 1989).
Values after ≈ are worked out from the molar mass of the structure shown. Read-outs that look alike come from different tables or passages of the source.

Assays:
Acto. pyog. = assay: MIC in brain heart infusion (BHI) broth, two-fold dilutions; assay type: cell-based; conditions: 24 h
Excerpt: (§1) Generally twelve 2 fold dilutions of the test compound are employed, with initial concentration of the test drug being in the range of 50 to 200 mcg./ml. The susceptibility (MIC) of the test organism is accepted as the lowest concentration of compound capable of producing complete inhibition of growth as judged by the naked eye.

E. coli = assay: as above; assay type: cell-based; conditions: Escherichia coli
Excerpt: as §1

Fusob. necro. = assay: as above; assay type: cell-based; conditions: 24 h
Excerpt: as §1

Hemoph. pleur. = assay: as above; assay type: cell-based; conditions: 24 h
Excerpt: as §1

Lact. acidoph. = assay: as above; assay type: cell-based; conditions: 24 h; Lact. acidoph. 001, Day 1
Excerpt: as §1

Lact. sp. = assay: as above; assay type: cell-based; conditions: 24 h; Lact. sp. 001, Day 1
Excerpt: as §1

Morax. bovis = assay: as above; assay type: cell-based
Excerpt: as §1

Past. haem. = assay: as above; assay type: cell-based
Excerpt: as §1

Past. mult = assay: as above; assay type: cell-based
Excerpt: as §1

Staph. aureus = assay: as above; assay type: cell-based; conditions: Staphylococcus aureus
Excerpt: as §1

Strep. zooedid. = assay: as above; assay type: cell-based; conditions: 24 h; Strep. zooedid. 001, Day 1
Excerpt: as §1

Trepo. hyodis. = assay: as above; assay type: cell-based; conditions: 24 h
Excerpt: as §1

Past. haem. 010 = assay: mouse protection test; assay type: in vivo; conditions: mice infected i.p. with multilethal amounts of Past. haem. 010
Protocol: Additionally, compound (I) is tested in vivo by the well-known mouse protection test, or by a microbiological (bioassay) determination of serum levels in a variety of mammals (e.g., mouse, rat, dog). For example, at subcutaneous doses of either 100 mg./kg. or 25 mg./kg., there was survival of 5/5 mice infected i.p. with multilethal amounts of Past. haem. 010.

SMILES: CC=CC=CC1OC(O)(C(CC)C(=O)NCC=CC=C(C)C(OC)C(C)C2OC(C=CC=CC=C(C)C(=O)c3c(O)cc[nH]c3=O)C(O)C2O)C(O)C(OC2OC(C)C(OC3OC(C)C(OC)C(O)C3OC)C(OC)C2O)C1(C)C (stereo not drawn) [N--Demethylefrotomycin, N-demethylefrotomycin]
- MIC (Acto. pyog.; Acto. pyog. 002, Day 1): 12.5 µg/mL (≈ 11 µM)
- MIC (Acto. pyog.; Acto. pyog. 008, Day 1): 12.5 µg/mL (≈ 11 µM)
- MIC (Acto. pyog.; Acto. pyog. 011, Day 1, read-out: MIC): 100 µg/mL (≈ 88.4 µM)
- MIC (E. coli; 24 h, E. coli 124, Day 1): > 100 µg/mL
- MIC (E. coli; 48 h, E. coli 124, Day 2): > 100 µg/mL
- MIC (Fusob. necro.; Fusob. necro. 004, Day 1): 25 µg/mL (≈ 22.1 µM)
- MIC (Fusob. necro.; Fusob. necro. 006, Day 1): 6.25 µg/mL (≈ 5.52 µM)
- MIC (Hemoph. pleur.; Hemoph. pleur. 004, Day 1): 12.5 µg/mL (≈ 11 µM)
- MIC (Hemoph. pleur.; Hemoph. pleur. 005, Day 1): 12.5 µg/mL (≈ 11 µM)
- MIC (Hemoph. pleur.; Hemoph. pleur. 024, Day 1, read-out: MIC): > 100 µg/mL
- MIC (Lact. acidoph.): 12.5 µg/mL (≈ 11 µM)
- MIC (Lact. sp.): > 100 µg/mL
- MIC (Morax. bovis; 24 h, Morax. bovis 001, Day 1): 6.25 µg/mL (≈ 5.52 µM)
- MIC (Morax. bovis; 48 h, Morax. bovis 001, Day 2): 3.12 µg/mL (≈ 2.76 µM)
- MIC (Past. haem.; 24 h): 12.5 µg/mL (≈ 11 µM)
- MIC (Past. haem.; 24 h, Past. haem. 010, Day 1, read-out: MIC): 3.12 µg/mL (≈ 2.76 µM)
- MIC (Past. haem.; 24 h, Past. haem. 046, Day 1, read-out: MIC): 25 µg/mL (≈ 22.1 µM)
- MIC (Past. haem.; 24 h, Past. haem. 061, Day 1, read-out: MIC): 25 µg/mL (≈ 22.1 µM)
- MIC (Past. haem.; 48 h): 12.5 µg/mL (≈ 11 µM)
- MIC (Past. haem.; 48 h, Past. haem. 061, Day 2, read-out: MIC): 3.12 µg/mL (≈ 2.76 µM)
- MIC (Past. haem.; Past. haem. 046, Day 2): 12.5 µg/mL (≈ 11 µM)
- MIC (Past. mult; 24 h, Past. mult 006, Day 1, read-out: MIC): 6.25 µg/mL (≈ 5.52 µM)
- MIC (Past. mult; 24 h, Past. mult 048, Day 1, read-out: MIC): 3.12 µg/mL (≈ 2.76 µM)
- MIC (Past. mult; 48 h): 12.5 µg/mL (≈ 11 µM)
- MIC (Past. mult; 48 h, Past. mult 048, Day 2, read-out: MIC): 6.25 µg/mL (≈ 5.52 µM)
- MIC (Staph. aureus; 24 h, Staph. aureus 006, Day 1): > 100 µg/mL
- MIC (Staph. aureus; 48 h, Staph. aureus 006, Day 2): > 100 µg/mL
- MIC (Strep. zooedid.): > 100 µg/mL
- MIC (Trepo. hyodis.; Trepo. hyodis. 001, Day 1): 1.56 µg/mL (≈ 1.38 µM)
- MIC (Trepo. hyodis.; Trepo. hyodis. 002, Day 1): 0.78 µg/mL (≈ 0.689 µM)
- MIC (Trepo. hyodis.; Trepo. hyodis. 007, Day 1): 1.56 µg/mL (≈ 1.38 µM)
- survival of mice (Past. haem. 010; subcutaneous 25 mg./kg.): 5/5
- survival of mice (Past. haem. 010; subcutaneous 100 mg./kg.): 5/5
